Key:
Test in all cases: IC50 Determination
[1] = target: T1, Aldehyde dehydrogenase, dimeric NADP-preferring (Homo sapiens, UniProt P30838)
T1 sequence (P30838 whole entry): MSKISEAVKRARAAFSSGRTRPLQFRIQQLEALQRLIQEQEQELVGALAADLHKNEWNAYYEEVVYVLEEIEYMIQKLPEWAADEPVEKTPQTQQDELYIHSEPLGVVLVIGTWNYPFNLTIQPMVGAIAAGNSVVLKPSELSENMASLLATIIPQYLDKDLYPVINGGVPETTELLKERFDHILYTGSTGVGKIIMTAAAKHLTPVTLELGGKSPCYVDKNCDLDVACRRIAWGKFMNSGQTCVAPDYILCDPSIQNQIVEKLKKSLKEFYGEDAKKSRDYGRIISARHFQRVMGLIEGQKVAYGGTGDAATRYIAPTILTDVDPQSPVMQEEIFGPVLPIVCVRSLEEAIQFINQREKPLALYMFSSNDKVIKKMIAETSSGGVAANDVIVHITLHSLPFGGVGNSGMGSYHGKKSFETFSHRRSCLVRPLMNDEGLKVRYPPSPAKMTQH
Procedure: (§1) To determine the IC50 values for CB29 and its analogues, propionaldehyde was used as the substrate for ALDH1A1 and ALDH2 and benzaldehyde was used as the substrate for ALDH3A1. The assays were performed at various concentrations of inhibitors, ranging from 50 nM to 250 uM, following 1 min preincubation. All reactions were initiated by the addition of the aldehyde substrate.

[2] = target: T2, Aldehyde dehydrogenase 1A1 (Homo sapiens, UniProt P00352)
T2 sequence (P00352 whole entry): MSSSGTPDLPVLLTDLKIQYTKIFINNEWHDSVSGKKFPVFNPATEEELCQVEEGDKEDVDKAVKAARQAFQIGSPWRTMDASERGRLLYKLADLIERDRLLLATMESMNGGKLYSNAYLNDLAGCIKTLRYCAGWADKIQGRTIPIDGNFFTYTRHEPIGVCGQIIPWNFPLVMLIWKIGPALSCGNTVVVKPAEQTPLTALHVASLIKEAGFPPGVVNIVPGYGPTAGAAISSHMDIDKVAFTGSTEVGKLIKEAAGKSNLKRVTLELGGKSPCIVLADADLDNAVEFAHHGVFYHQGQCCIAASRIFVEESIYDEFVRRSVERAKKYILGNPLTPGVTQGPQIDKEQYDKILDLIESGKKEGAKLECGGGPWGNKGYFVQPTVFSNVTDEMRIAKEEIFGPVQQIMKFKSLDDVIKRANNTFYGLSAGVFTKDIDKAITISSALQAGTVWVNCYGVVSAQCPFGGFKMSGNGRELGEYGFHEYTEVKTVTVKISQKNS
Procedure: as §1

[3] = target: T1, Aldehyde dehydrogenase, dimeric NADP-preferring; remark: listed apart in the source

SMILES: CN(C)c1ccc(Nc2ccc(S(=O)(=O)C(F)(F)F)cc2[N+](=O)[O-])cc1 [CB29 (derivative 5)]
- IC50 [1]: 17 µM

SMILES: CS(=O)(=O)c1ccc(Nc2ccc(NCC3CCCC3)cc2)c(S(C)(=O)=O)c1 [CB29 (derivative 6)]
- IC50 [2]: 32 µM
- IC50 [1]: 40 µM

SMILES: CC(C)NS(=O)(=O)c1ccc(Nc2cccc(NC3CC3)c2)c([N+](=O)[O-])c1 [CB29 (derivative 9)]
- IC50 [1]: 26.3 µM

SMILES: CC(C)C(=O)Nc1ccc(Nc2ccc(S(C)(=O)=O)cc2[N+](=O)[O-])cc1 [CB29 (derivative 12)]
- IC50 [2]: 16.8 µM
- IC50 [1]: 19.6 µM

SMILES: CNS(=O)(=O)c1ccc(Nc2ccc(NC(=O)CC(C)C)cc2)c([N+](=O)[O-])c1 [CB29 (derivative 13)]
- IC50 [2]: 11.6 µM
- IC50 [1]: 42.3 µM

SMILES: CCN(CC)S(=O)(=O)c1ccc(Nc2ccc(NC(=O)C(C)C)cc2)c([N+](=O)[O-])c1 [CB29 (derivative 14)]
- IC50 [2]: 8.3 µM
- IC50 [1]: 100 µM

SMILES: CC(Nc1ccc(S(C)(=O)=O)cc1[N+](=O)[O-])C(=O)O (configuration not stated) [CB29 (derivative 16)]
- IC50 [2]: 50 µM

SMILES: CS(=O)(=O)c1ccc(Nc2ccc3c(c2)CCC3)c([N+](=O)[O-])c1 [CB29 (derivative 17)]
- IC50 [1]: 26.9 µM

SMILES: CC(C)NS(=O)(=O)c1ccc(Nc2ccc3c(c2)CCC3)c([N+](=O)[O-])c1 [CB29 (derivative 18)]
- IC50 [1]: 30.5 µM

SMILES: CC(C)NS(=O)(=O)c1ccc(NC2CCN(CC(=O)Nc3ccccc3)CC2)c([N+](=O)[O-])c1 [CB29 (derivative 19)]
- IC50 [1]: 25.6 µM

SMILES: CC(=O)Nc1ccc(Oc2ccc(S(=O)(=O)C(F)(F)F)cc2[N+](=O)[O-])cc1 [CB29 (derivative 20)]
- IC50 [1]: 100 µM

SMILES: CC(=O)Nc1ccc(Nc2ccc(S(C)(=O)=O)cc2[N+](=O)[O-])cc1 [CB29]
- Ki [3]: 4.7 µM
- IC50 [1]: 16 µM

— BindingDB's records for doi:10.1002/cbic.201300625 (Indiana University, 2014)
